The results in this text go back to patent US7279598B2, “Process for separating and recovering 3-hydroxypropionic acid and acrylic acid” (priority 2003, dated 2007).

The data set in a line: Extraction of acrylic acid and 3-hydroxypropionic acid from aqueous stock solutions by ethyl acetate (partition between ethyl acetate and aqueous phase). The class given is physicochemical. The settings on record: for Partition coefficient, D, average number of partition coefficients listed in Table 2: ethyl acetate / aqueous phase, average over the five stock solutions; for Partition Coefficient, D: ethyl acetate extractant phase / aqueous phase, 22° C.; for Separation Factor, S AA/3HP: partition coefficient of AA divided by that of 3HP. The method, then: The aqueous stock solutions comprise 30% 3-hydroxypropionic acid aqueous solution and 99% acrylic acid.
1. To a 15 ml centrifuge tube 5 ml of each acid stock solution and ethyl acetate extractant were added.
2. […] (rpm designates revolutions per minute).
4. The volumes of the aqueous and ethyl acetate extractant phases in the tubes were recorded.
The processing conditions and experimental results for the extraction of acrylic acid (AA) and 3-hydroxypropionic acid (3HP) by ethyl acetate are reported in the following Table 2.

[1] abbreviates: Aqueous Stock Solution No. 1 (0.67 wt % AA, 1.34 wt % 3HP).
The mark [2] stands for this setting: Aqueous Stock Solution No. 2 (3.33 wt % AA, 6.67 wt % 3HP).
The mark [3] stands for this setting: Aqueous Stock Solution No. 3 (6.67 wt % AA, 13.34 wt % 3HP).
Setting [4] is: Aqueous Stock Solution No. 4 (9.99 wt % AA, 19.98 wt % 3HP).
[5] abbreviates: Aqueous Stock Solution No. 5 (12.51 wt % AA, 25.05 wt % 3HP).

As to `C=CC(=O)O` [AA, acrylic acid], the “Partition coefficient, D, average number of partition coefficients listed in Table 2” value was found to be 2.572. Moreover, the “Partition Coefficient, D” value under setting [1] is recorded as 2.96. The “Partition Coefficient, D” value under setting [2] was 2.97. Also, the “Partition Coefficient, D” value under setting [3] stood at 2.66. The “Partition Coefficient, D” value under setting [4] is reported as 2.36. The “Partition Coefficient, D” value under setting [5] worked out at 1.91. In addition, the “Separation Factor, S AA/3HP” value (Aqueous Stock Solution No. 1) is on record as 16.55. For the same compound, under “Aqueous Stock Solution No. 2”, the “Separation Factor, S AA/3HP” value turned out to be 14.18. Moreover, under “Aqueous Stock Solution No. 3”, the “Separation Factor, S AA/3HP” value is 9.79. Moreover, where the note is “Aqueous Stock Solution No. 4”, the “Separation Factor, S AA/3HP” value is on record as 7.81. The “Separation Factor, S AA/3HP” value (Aqueous Stock Solution No. 5) is reported as 4.66.
For the compound `O=C(O)CCO` [3HP, 3-hydroxypropionic acid], the “Partition coefficient, D, average number of partition coefficients listed in Table 2” value is given as 0.274. Further, the “Partition Coefficient, D” value under setting [1] was 0.18. The “Partition Coefficient, D” value under setting [2] worked out at 0.21. Moreover, under setting [3], the “Partition Coefficient, D” value amounted to 0.27. Under setting [4], the “Partition Coefficient, D” value is listed as 0.30. For the same compound, the “Partition Coefficient, D” value under setting [5] is 0.41.
